Results taken from patent US5627152A, “Method for increasing bodyweight” (Telluride Pharmaceutical Corporation, priority 1995, dated 1997).

How the values were obtained:
guinea pigs = conditions: high doses; cited from earlier work
[1] = Oral glutathione capsules in healthy subjects: bodyweight and percent bodyfat by the caliper method; assay type: in vivo, human; conditions: for percentage bodyfat at end of treatment: caliper method
Method: A healthy subject who wished to gain more weight in the form of lean muscle tissue, was treated for five weeks with one capsule containing 250 mg glutathione four times daily resulting in a total daily dosage of 1000 mg glutathione.
A healthy subject who wished to add bodyweight in the form of lean muscle, was treated for seven weeks with one capsule containing 500 mg of glutathione, four times per day. The totally daily dose was 2,000 mg of glutathione.
A […] healthy male subject who wished to add bodyweight in the form of lean muscle, was treated for seven weeks with two capsule of 500 mg of glutathione, three times per day. The totally daily dose was 3,000 mg of glutathione.
A healthy subject who wished to add bodyweight in the form of lean muscle was treated for six weeks with two capsules containing 500 mg of glutathione, twice daily. The totally daily dose was 2,000 mg of glutathione.

N[C@@H](CCC(=O)N[C@@H](CS)C(=O)NCC(=O)O)C(=O)O [glutathione, -L-glutamyl-cysteinylglycine]
effect on bodyweight (cachexia) (guinea pigs): promote cachexia
percentage bodyfat at end of treatment ([1]; Example 1: 1000 mg/day, five weeks, start 20.1%): 18.6%
fat at end of treatment ([1]; Example 1: 1000 mg/day, five weeks, start 25 pounds): 24 pounds
muscle, bone and connective tissue at end of treatment ([1]; Example 1: 1000 mg/day, five weeks, start 100 pounds): 105 pounds
percent change in lean bodyweight (gain) ([1]; Example 1: 1000 mg/day, five weeks, without a change in diet or exercise regimen): 5%
bodyweight at end of treatment ([1]; Example 1: healthy person, 250 mg capsule four times daily (1000 mg/day), five weeks, start 125 pounds): 129 pounds
percentage bodyfat at end of treatment ([1]; Example 2: 2,000 mg/day, seven weeks, start 24.9%): 22.3%
fat at end of treatment ([1]; Example 2: 2,000 mg/day, seven weeks, start 55 pounds): 55 pounds
muscle, bone and connective tissue at end of treatment ([1]; Example 2: 2,000 mg/day, seven weeks, start 165 pounds): 193 pounds
percent change in lean body weight ([1]; Example 2: 2,000 mg/day, seven weeks, without a change in diet or exercise regimen): 17%
bodyweight at end of treatment ([1]; Example 2: healthy person, 500 mg capsule four times per day (2,000 mg/day), seven weeks, start 220 pounds): 248 pounds
percentage bodyfat at end of treatment ([1]; Example 3: 3,000 mg/day, seven weeks, start 18.5%): 15.1%
percent change in lean body weight ([1]; Example 3: 3,000 mg/day, seven weeks, no change in diet or exercise regimen): 24.2%
fat at end of treatment ([1]; Example 3: 3,000 mg/day, seven weeks, start 38 pounds): 36 pounds
muscle, bone and connective tissue at end of treatment ([1]; Example 3: 3,000 mg/day, seven weeks, start 165 pounds): 205 pounds
bodyweight at end of treatment ([1]; Example 3: healthy person, two 500 mg capsules three times per day (3,000 mg/day), seven weeks, start 203 pounds): 241 pounds
percentage bodyfat at end of treatment ([1]; Example 4: 2,000 mg/day, six weeks, start 17.2%): 14.9%
fat at end of treatment ([1]; Example 4: 2,000 mg/day, six weeks, start 36 pounds): 36 pounds
muscle, bone and connective tissue at end of treatment ([1]; Example 4: 2,000 mg/day, six weeks, start 176 pounds): 203 pounds
percent change in lean body weight ([1]; Example 4: 2,000 mg/day, six weeks, with a change in diet or exercise regimen (so in the source)): 15.3%
bodyweight at end of treatment ([1]; Example 4: healthy person, two 500 mg capsules twice daily (2,000 mg/day), six weeks, start 212 pounds): 239 pounds
